Data as given in patent publication US20250326744A1, “PIPERAZINE DERIVATIVE OR SALT THEREOF, AND PHARMACEUTICAL COMPOSITION” (priority 2022, published 2025).
Structures can show the parent of a compound that is named as a salt.

Legend:
mexB (PA) strain = experiment: Combinational effect with antibacterial agent against Pseudomonas aeruginosa (Test Examples 2 and 4): mexB (PA) strain with LVFX, TC or AZT at 1/4 MIC, EC99; format: cell-based; conditions: for EC99, combinational effect with AZT, mexB (PA) / EC99, combinational effect with LVFX, mexB (PA) / EC99, combinational effect with TC, mexB (PA): mexB (PA) strain, Test Example 4; for EC99, combinational effect with AZT, mexB (PA) / EC99, mexB (PA), AZT: combined with AZT at 1/4 MIC; for EC99, combinational effect with LVFX, mexB (PA) / EC99, mexB (PA), LVFX: combined with LVFX at 1/4 MIC; for EC99, combinational effect with TC, mexB (PA) / EC99, mexB (PA), TC: combined with TC at 1/4 MIC; for EC99, mexB (PA), AZT / EC99, mexB (PA), LVFX / EC99, mexB (PA), TC: Table 52, Test Example 2, 16 to 20 hours culture, OD595
Procedure, shortened: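 EC99 denotes the minimum test-compound concentration (range 0–800 μM) that suppresses ≥99% of growth, measured by OD595, when combined with ¼ MIC levofloxacin (LVFX), tetracycline or aztreonam. The efflux-pump mutant mexB (PA), expressing mainly MexAB-OprM, was inoculated at 10^4–5 CFU/well in CAMHB for 16–20 h.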

S-3769 strain = experiment: Combinational effect with antibacterial agent against Pseudomonas aeruginosa (Test Examples 2 and 4): S-3769 strain with AMK or GM at 1/4 MIC, EC99; format: cell-based; conditions: for EC99, combinational effect with AMK, S-3769 strain / EC99, S-3769 strain, AMK: combined with AMK at 1/4 MIC; for EC99, combinational effect with AMK, S-3769 strain / EC99, combinational effect with GM, S-3769 strain: Test Example 4; for EC99, combinational effect with GM, S-3769 strain / EC99, S-3769 strain, GM: combined with GM at 1/4 MIC; for EC99, S-3769 strain, AMK / EC99, S-3769 strain, GM: Table 52, Test Example 2, 16 to 20 hours culture, OD595
Procedure, shortened: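 EC99, the lowest test-compound concentration inhibiting growth by ≥99% (OD595), was measured with aminoglycoside AMK or GM held at ¼ MIC. Strain S-3769, a MexY-overexpressing clinical isolate, was cultured in CAMHB at 10^4 to 5 CFU/well for 16–20 h; compound range 0–800 μM.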

| SMILES | EC99, combinational effect with AZT, mexB (PA) (mexB (PA) strain) | EC99, combinational effect with LVFX, mexB (PA) (mexB (PA) strain) | EC99, combinational effect with TC, mexB (PA) (mexB (PA) strain) | EC99, combinational effect with AMK, S-3769 strain (S-3769 strain) | EC99, combinational effect with GM, S-3769 strain (S-3769 strain) | EC99, mexB (PA), AZT (mexB (PA) strain) | EC99, mexB (PA), LVFX (mexB (PA) strain) | EC99, mexB (PA), TC (mexB (PA) strain) | EC99, S-3769 strain, AMK (S-3769 strain) | EC99, S-3769 strain, GM (S-3769 strain) |
| --- | --- | --- | --- | --- | --- | --- | --- | --- | --- | --- |
| CSc1ccccc1CN1CCN(C(=O)[C@H](N)C2CCN(CCc3cc(Cl)ccc3-c3ccccc3O)CC2)CC1 [Example 592, Hydrochloride of (R)-2-amino-2-(1-(2-(4-chloro-2′-hydroxy-[1,1-biphenyl]-2-yl)ethyl)piperidin-4-yl)-1-(4-(2-(methylthio)benzyl)piperazin-1-yl)ethan-1-one] | S (EC99≤12.5 μM) | S (EC99≤12.5 μM) | S (EC99≤12.5 μM) | A (12.5 μM<EC99≤25 μM) | B (25 μM<EC99≤100 μM) |  |  |  |  |  |
| CCOc1cccc(F)c1CN1CCN(C(=O)[C@H](N)C2CCN(CCc3cc(Cl)ccc3-c3cccnc3)CC2)CC1 [Example 73, Hydrobromide of (R)-2-amino-2-(1-(5-chloro-2-(pyridin-3-yl)phenethyl)piperidin-4-yl)-1-(4-(2-ethoxy-6-fluorobenzyl)piperazin-1-yl)ethan-1-one] |  |  |  |  |  | A (12.5 μM<EC99≤25 μM) | C (100 μM<EC99) | B (25 μM<EC99≤100 μM) | S (EC99≤12.5 μM) | S (EC99≤12.5 μM) |
| CCOc1cccc(F)c1CN1CCN(C(=O)[C@H](N)C2CCN(CCc3cc(Cl)ccc3-c3ccccc3Cl)CC2)CC1 [Example 44, (R)-2-amino-2-(1-(2-(2′,4-dichloro-[1,1′-biphenyl]-2-yl)ethyl)piperidin-4-yl)-1-(4-(2-ethoxy-6-fluorobenzyl)piperazin-1-yl)ethan-1-one] |  |  |  |  |  | S (EC99≤12.5 μM) | A (12.5 μM<EC99≤25 μM) | S (EC99≤12.5 μM) | S (EC99≤12.5 μM) | S (EC99≤12.5 μM) |
| Nc1nc2c(CN3CCN(C(=O)[C@H](N)C4CCN(CCc5cc(Cl)ccc5-c5ccccc5)CC4)CC3)cccc2s1 [Example 519, Hydrobromide of (R)-2-amino-1-(4-((2-aminobenzo[d]thiazol-4-yl)methyl)piperazin-1-yl)-2-(1-(2-(4-chloro-[1,1-biphenyl]-2-yl)ethyl)piperidin-4-yl)ethan-1-one] | C (100 μM<EC99) | C (100 μM<EC99) | B (25 μM<EC99≤100 μM) | B (25 μM<EC99≤100 μM) | B (25 μM<EC99≤100 μM) |  |  |  |  |  |
| CCOc1cccc(F)c1CN1CCN(C(=O)[C@H](N)C2CCN(CCC3CCCc4ccccc43)CC2)CC1 (stereo partly drawn) [Example 151, Hydrobromide of (2R)-2-amino-1-(4-(2-ethoxy-6-fluorobenzyl)piperazin-1-yl)-2-(1-(2-(1,2,3,4-tetrahydronaphthalen-1-yl)ethyl)piperidin-4-yl)ethan-1-one] |  |  |  |  |  | C (100 μM<EC99) | C (100 μM<EC99) | C (100 μM<EC99) | B (25 μM<EC99≤100 μM) | B (25 μM<EC99≤100 μM) |
| N[C@@H](C(=O)N1CCN(Cc2cccc3c2OCC3)CC1)C1CCN(CCc2cc(Cl)ccc2-c2ccccc2)CC1 [Example 38, Hydrobromide of (R)-2-amino-2-(1-(2-(4-chloro-[1,1′-biphenyl]-2-yl)ethyl)piperidin-4-yl)-1-(4-((2,3-dihydrobenzofuran-7-yl)methyl)piperazin-1-yl)ethan-1-one] |  |  |  |  |  | A (12.5 μM<EC99≤25 μM) | C (100 μM<EC99) | B (25 μM<EC99≤100 μM) | A (12.5 μM<EC99≤25 μM) | A (12.5 μM<EC99≤25 μM) |
| CCOc1cccc(F)c1CN1CCN(C(=O)[C@H](N)C2CCN(CCc3cc(Cl)ccc3-c3ccc(F)cc3O)CC2)CC1 [Example 108, Hydrochloride of (R)-2-amino-2-(1-(2-(4-chloro-4′-fluoro-2′-hydroxy-[1,1′-biphenyl]-2-yl)ethyl)piperidin-4-yl)-1-(4-(2-ethoxy-6-fluorobenzyl)piperazin-1-yl)ethan-1-one] |  |  |  |  |  | B (25 μM<EC99≤100 μM) | B (25 μM<EC99≤100 μM) | A (12.5 μM<EC99≤25 μM) | S (EC99≤12.5 μM) | A (12.5 μM<EC99≤25 μM) |
| CSc1cccc(Cl)c1CN1CCN(C(=O)[C@H](N)C2CCN(CCc3cc(Cl)ccc3-c3ccccc3)CC2)CC1 [Example 532, Hydrobromide of (R)-2-amino-1-(4-(2-chloro-6-(methylthio)benzyl)piperazin-1-yl)-2-(1-(2-(4-chloro-[1,1-biphenyl]-2-yl)ethyl)piperidin-4-yl)ethan-1-one] | B (25 μM<EC99≤100 μM) | B (25 μM<EC99≤100 μM) | B (25 μM<EC99≤100 μM) | B (25 μM<EC99≤100 μM) | B (25 μM<EC99≤100 μM) |  |  |  |  |  |
| CCOc1cccc(F)c1CN1CCN(C(=O)[C@H](N)C2CCN(CCc3cc(Cl)ccc3-c3cccc(N)c3F)CC2)CC1 [Example 557, Hydrobromide of (R)-2-amino-2-(1-(2-(3′-amino-4-chloro-2′-fluoro-[1,1-biphenyl]-2-yl)ethyl)piperidin-4-yl)-1-(4-(2-ethoxy-6-fluorobenzyl)piperazin-1-yl)ethan-1-one] | S (EC99≤12.5 μM) | S (EC99≤12.5 μM) | S (EC99≤12.5 μM) | A (12.5 μM<EC99≤25 μM) | A (12.5 μM<EC99≤25 μM) |  |  |  |  |  |
| CCOc1ccc(O)c(F)c1CN1CCN(C(=O)[C@H](N)C2CCN(CCc3ccccc3)CC2)CC1 [Example 94, hydrobromide of (R)-2-amino-1-(4-(6-ethoxy-2-fluoro-3-hydroxybenzyl)piperazin-1-yl)-2-(1-phenethylpiperidin-4-yl)ethan-1-one] |  |  |  |  |  | C (100 μM<EC99) | C (100 μM<EC99) | C (100 μM<EC99) | B (25 μM<EC99≤100 μM) | B (25 μM<EC99≤100 μM) |
| CCOc1cccc(F)c1CN1CCN(C(=O)[C@H](N)C2CCN(CCc3cc(Cl)ccc3-c3cccc(O)c3)CC2)CC1 [Example 100, (R)-2-amino-2-(1-(2-(4-chloro-3′-hydroxy-[1,1′-biphenyl]-2-yl)ethyl)piperidin-4-yl)-1-(4-(2-ethoxy-6-fluorobenzyl)piperazin-1-yl)ethan-1-one] |  |  |  |  |  | A (12.5 μM<EC99≤25 μM) | A (12.5 μM<EC99≤25 μM) | A (12.5 μM<EC99≤25 μM) | S (EC99≤12.5 μM) | S (EC99≤12.5 μM) |
| CCOc1cccc(F)c1CN1CCN(C(=O)[C@H](N)C2CCN(CCc3cc(F)ccc3-c3ccccc3)CC2)CC1 [Example 50, Hydrobromide of (R)-2-amino-1-(4-(2-ethoxy-6-fluorobenzyl)piperazin-1-yl)-2-(1-(2-(4-fluoro-[1,1′-biphenyl]-2-yl)ethyl)piperidin-4-yl)ethan-1-one] |  |  |  |  |  | B (25 μM<EC99≤100 μM) | C (100 μM<EC99) | B (25 μM<EC99≤100 μM) | B (25 μM<EC99≤100 μM) | A (12.5 μM<EC99≤25 μM) |
| Cc1ccsc1CN1CCN(C(=O)[C@H](N)C2CCN(CCc3cc(Cl)ccc3-c3ccccc3)CC2)CC1 [Example 516, Hydrobromide of (R)-2-amino-2-(1-(2-(4-chloro-[1,1-biphenyl]-2-yl)ethyl)piperidin-4-yl)-1-(4-((3-methylthiophen-2-yl)methyl)piperazin-1-yl)ethan-1-one] | B (25 μM<EC99≤100 μM) | B (25 μM<EC99≤100 μM) | B (25 μM<EC99≤100 μM) | B (25 μM<EC99≤100 μM) | B (25 μM<EC99≤100 μM) |  |  |  |  |  |
